The values below come from patent US20190314318A1, “SUPPRESSION AND PREVENTION OF TUMORS AND TREATMENT OF VIRUSES” (priority 2018, published 2019).

Data set [1] in a line: Additional benefits observed in people taking betaine. Type of data set: in vivo, human. The source says: Betaine is known to improve cardiovascular health, and can benefit people with fatty deposits in the liver. […] After only a few weeks of taking the betaine, cholesterol levels are reduced and the ability to lose weight is improved.
For data set [2] the following is noted: in vivo; cited from earlier work.
Where [3] appears, read: after only a few weeks of taking the betaine.

The structures appear in SMILES notation.

For `C[N+](C)(C)CC(=O)[O-]` [betaine, trimethylglycine], the “tendency to be light headed on getting up after prolonged squatting or kneeling” value in data set [1] (a few doses of betaine at about one and a half to about three grams per day, especially older people) is “considerably lessened”. In data set [1] (setting [3]), the “ability to lose weight” value is given as “improved” and the cholesterol levels result is recorded as “reduced”. In data set [2], the serious side effects result was “no known serious side effects”.
